Results as given in patent US12281122B1, “PI3K inhibitors” (Cogent Biosciences, Inc., priority 2023, dated 2025).

Columns and labels:
PI3Kα H1047R = PI3Kα H1047R (Homo sapiens, UniProt P42336, H1047R); assay: PI3Kα H1047R enzyme assay (Transcreener ADP2 TR-FRET Red Assay); format: biochemical; settings: purified recombinant full-length protein; 2 hours pre-incubation with compound
Method in brief: (§1)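 IC50 taken at 50 POC from a four-parameter logistic fit of TR-FRET (665/615 nm) ADP signal. Reactions used full-length recombinant enzyme, compound pre-incubation for 2 h, then 60 min with ATP and PI(4,5)P2 diC8 substrate at room temperature, pH 7.5 HEPES buffer with 25 mM MgCl2; compounds tested from 50,000 to 0.85 nM.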

PI3Kα = PI3Kα (Homo sapiens, UniProt P42336); assay: PI3Kα enzyme assay (Transcreener ADP2 TR-FRET Red Assay); format: biochemical; settings: purified recombinant full-length protein; 2 hours pre-incubation with compound; read-out: PI3Kα WT IC50
Method in brief: as §1

[1] = test system: SKBR3 (PI3Kα-Wild Type) cell line; assay: HTRF phospho-AKT(S473) cell assay in SKBR3 cells; format: cell-based, human; settings: Homo sapiens, SK-BR-3; SKBR3 (PI3Kα-Wild Type) cells, HTRF phospho-AKT(S473), 2 hours compound incubation, PDGF-BB stimulated
Method in brief: (§2)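 Cells plated overnight (T47D in RPMI/10% FBS/0.2 units/mL insulin; SKBR3 in McCoy's 5A/10% FBS), then given 12-point 1:3 compound series (top 5 μM T47D, 10 μM SKBR3; ≤0.5% DMSO) for 2 h at 37° C. SKBR3 stimulated with 70 ng/ml PDGF-BB for final 15 min. Lysate pAKT(S473) by HTRF; IC50 calculated.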

[2] = test system: T47D (PI3Kα-H1047R) cell line; assay: HTRF phospho-AKT(S473) cell assay in T47D cells; format: cell-based, human; settings: Homo sapiens; T47D (PI3Kα-H1047R) cells, HTRF phospho-AKT(S473), 2 hours compound incubation
Method in brief: as §2

PI3Kα, sequence (P42336 whole entry): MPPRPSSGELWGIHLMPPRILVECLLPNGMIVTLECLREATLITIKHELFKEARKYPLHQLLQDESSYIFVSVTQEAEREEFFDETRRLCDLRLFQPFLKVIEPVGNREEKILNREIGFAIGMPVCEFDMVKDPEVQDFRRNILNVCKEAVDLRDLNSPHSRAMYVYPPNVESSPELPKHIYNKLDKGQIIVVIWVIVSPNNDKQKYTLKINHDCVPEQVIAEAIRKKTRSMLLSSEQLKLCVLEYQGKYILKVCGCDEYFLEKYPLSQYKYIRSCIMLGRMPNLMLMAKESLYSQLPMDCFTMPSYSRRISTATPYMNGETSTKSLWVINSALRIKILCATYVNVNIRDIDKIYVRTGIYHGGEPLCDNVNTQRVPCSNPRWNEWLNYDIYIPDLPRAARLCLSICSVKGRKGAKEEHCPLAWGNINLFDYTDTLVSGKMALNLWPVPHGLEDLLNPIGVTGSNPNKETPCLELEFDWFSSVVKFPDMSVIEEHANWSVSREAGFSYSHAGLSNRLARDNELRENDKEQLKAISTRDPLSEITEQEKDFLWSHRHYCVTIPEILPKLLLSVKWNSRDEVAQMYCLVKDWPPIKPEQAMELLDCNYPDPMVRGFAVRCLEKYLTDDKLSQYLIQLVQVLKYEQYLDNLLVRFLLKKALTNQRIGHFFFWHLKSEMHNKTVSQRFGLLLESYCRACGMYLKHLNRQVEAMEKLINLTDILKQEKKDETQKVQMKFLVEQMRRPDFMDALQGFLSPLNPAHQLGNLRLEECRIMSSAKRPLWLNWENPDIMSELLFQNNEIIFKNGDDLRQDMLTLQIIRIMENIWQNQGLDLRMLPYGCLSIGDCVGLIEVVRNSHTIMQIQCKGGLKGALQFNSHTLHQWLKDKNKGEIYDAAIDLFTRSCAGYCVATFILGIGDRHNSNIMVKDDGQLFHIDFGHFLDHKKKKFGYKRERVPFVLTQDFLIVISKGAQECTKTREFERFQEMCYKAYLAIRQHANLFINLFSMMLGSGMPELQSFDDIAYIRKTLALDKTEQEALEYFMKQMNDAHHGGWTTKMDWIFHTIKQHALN
PI3Kα, sequence (P27986 2-724 partner): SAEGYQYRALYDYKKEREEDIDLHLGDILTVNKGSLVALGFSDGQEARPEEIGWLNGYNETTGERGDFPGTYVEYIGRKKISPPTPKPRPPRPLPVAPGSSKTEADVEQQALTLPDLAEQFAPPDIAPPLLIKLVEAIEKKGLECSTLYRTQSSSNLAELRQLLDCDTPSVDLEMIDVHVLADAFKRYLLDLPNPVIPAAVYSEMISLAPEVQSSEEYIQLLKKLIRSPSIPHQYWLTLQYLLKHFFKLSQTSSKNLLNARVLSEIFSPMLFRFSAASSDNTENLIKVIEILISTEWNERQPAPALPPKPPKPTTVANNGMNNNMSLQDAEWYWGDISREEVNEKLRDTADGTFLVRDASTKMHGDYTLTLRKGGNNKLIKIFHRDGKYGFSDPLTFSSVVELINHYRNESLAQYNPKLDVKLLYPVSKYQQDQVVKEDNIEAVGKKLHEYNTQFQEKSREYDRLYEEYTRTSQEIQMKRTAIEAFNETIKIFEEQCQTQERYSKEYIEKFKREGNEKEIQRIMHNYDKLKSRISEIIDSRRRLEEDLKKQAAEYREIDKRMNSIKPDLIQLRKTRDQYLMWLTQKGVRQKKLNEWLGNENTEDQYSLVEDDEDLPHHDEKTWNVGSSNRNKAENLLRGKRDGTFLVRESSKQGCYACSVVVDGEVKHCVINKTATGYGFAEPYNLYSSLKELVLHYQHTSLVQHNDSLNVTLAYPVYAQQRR
PI3Kα H1047R, sequence (P42336 whole entry H1047R): as the sequence (P42336 whole entry) above, with H1047R counted along it
PI3Kα H1047R, sequence (P27986 2-724 partner): as the sequence (P27986 2-724 partner) above

SMILES | IC50 (PI3Kα H1047R) | IC50 (PI3Kα) | IC50 [1] | IC50 [2]
Cc1cc([C@@H](C)Nc2ccc(Cl)nc2S(N)(=O)=O)c2nc(N3Cc4ccc(F)cc4C3)n(C)c(=O)c2c1 [Compound 76, (R)-6-chloro-3-((1-(2-(5-fluoroisoindolin-2-yl)-3,6-dimethyl-4-oxo-3,4-dihydroquinazolin-8-yl)ethyl)amino)pyridine-2-sulfonamide] | < 0.1 µM | ≥ 1 µM | 1 to 5 µM | 0.25 to 0.5 µM
CC(=O)NS(=O)(=O)c1nc(Cl)ccc1N[C@H](C)c1cc(F)cc2c(=O)n(C)c(N3CCC(F)(F)CC3)nc12 [Compound 77, (R)-N-((6-chloro-3-((1-(2-(4,4-difluoropiperidin-1-yl)-6-fluoro-3-methyl-4-oxo-3,4-dihydroquinazolin-8-yl)ethyl)amino)pyridin-2-yl)sulfonyl)acetamide] | ≥ 1 µM | ≥ 1 µM | ≥ 5 µM | 1 to 5 µM
CC(=O)NS(=O)(=O)c1nc(Cl)ccc1N[C@H](C)c1cc(C)cc2c(=O)n(C)c(N3CCC(F)(F)CC3)nc12 [Compound 78, (R)-N-((6-chloro-3-((1-(2-(4,4-difluoropiperidin-1-yl)-3,6-dimethyl-4-oxo-3,4-dihydroquinazolin-8-yl)ethyl)amino)pyridin-2-yl)sulfonyl)acetamide] | 0.5 to 1 µM | ≥ 1 µM | 1 to 5 µM | 0.25 to 0.5 µM
Cc1cc([C@@H](C)Nc2ccc(Cl)nc2S(=O)(=O)NC(=O)C2CC2)c2nc(N3Cc4ccc(F)cc4C3)n(C)c(=O)c2c1 [Compound 79, (R)-N-((6-chloro-3-((1-(2-(5-fluoroisoindolin-2-yl)-3,6-dimethyl-4-oxo-3,4-dihydroquinazolin-8-yl)ethyl)amino)pyridin-2-yl)sulfonyl)cyclopropane-carboxamide] | 0.1 to 0.25 µM | ≥ 1 µM | ≥ 5 µM | 0.25 to 0.5 µM
Cc1cc([C@@H](C)Nc2ccc(Cl)nc2S(=O)(=O)NC(=O)C(C)C)c2nc(N3Cc4ccc(F)cc4C3)n(C)c(=O)c2c1 [Compound 80, (R)-N-((6-chloro-3-((1-(2-(5-fluoroisoindolin-2-yl)-3,6-dimethyl-4-oxo-3,4-dihydroquinazolin-8-yl)ethyl)amino)pyridin-2-yl)sulfonyl)isobutyramide] | 0.1 to 0.25 µM | ≥ 1 µM | ≥ 5 µM | 0.5 to 1 µM
CCC(=O)NS(=O)(=O)c1nc(Cl)ccc1N[C@H](C)c1cc(C)cc2c(=O)n(C)c(N3Cc4ccc(F)cc4C3)nc12 [Compound 81, (R)-N-((6-chloro-3-((1-(2-(5-fluoroisoindolin-2-yl)-3,6-dimethyl-4-oxo-3,4-dihydroquinazolin-8-yl)ethyl)amino)pyridin-2-yl)sulfonyl)propionamide] | < 0.1 µM | ≥ 1 µM | ≥ 5 µM | 0.25 to 0.5 µM
Cc1cc([C@@H](C)Nc2ccc(Cl)nc2C(=O)NS(C)(=O)=O)c2nc(-c3cccc(F)c3F)n(C)c(=O)c2c1 [Compound 82, (R)-6-chloro-3-((1-(2-(2,3-difluorophenyl)-3,6-dimethyl-4-oxo-3,4-dihydroquinazolin-8-yl)ethyl)amino)-N-(methylsulfonyl)picolinamide] | ≥ 1 µM | ≥ 1 µM | 1 to 5 µM | 0.5 to 1 µM
Cc1cc([C@@H](C)Nc2ccc(Cl)nc2C(=O)NS(C)(=O)=O)c2nc(-c3cncc(F)c3)n(C)c(=O)c2c1 [Compound 83, (R)-6-chloro-3-((1-(2-(5-fluoropyridin-3-yl)-3,6-dimethyl-4-oxo-3,4-dihydroquinazolin-8-yl)ethyl)amino)-N-(methylsulfonyl) picolinamide] | ≥ 1 µM | ≥ 1 µM | 1 to 5 µM | 0.25 to 0.5 µM
Cc1cc([C@@H](C)Nc2ccc(Cl)nc2C(=O)NS(C)(=O)=O)c2nc(-c3ccc(C)nc3)n(C)c(=O)c2c1 [Compound 84, (R)-6-chloro-3-((1-(3,6-dimethyl-2-(6-methylpyridin-3-yl)-4-oxo-3,4-dihydroquinazolin-8-yl)ethyl)amino)-N-(methylsulfonyl) picolinamide] | ≥ 1 µM | ≥ 1 µM | 1 to 5 µM | 0.25 to 0.5 µM
Cc1cc([C@@H](C)Nc2ccc(Cl)nc2C(=O)NS(C)(=O)=O)c2nc(-c3cccnc3C)n(C)c(=O)c2c1 [Compound 85, (R)-6-chloro-3-((1-(3,6-dimethyl-2-(2-methylpyridin-3-yl)-4-oxo-3,4-dihydroquinazolin-8-yl)ethyl)amino)-N-(methylsulfonyl) picolinamide] | ≥ 1 µM | ≥ 1 µM | ≥ 5 µM | 1 to 5 µM
Cc1cc([C@@H](C)Nc2ccc(Cl)nc2C(=O)NS(C)(=O)=O)c2nc(-c3cnc(C)nc3)n(C)c(=O)c2c1 [Compound 86, (R)-6-chloro-3-((1-(3,6-dimethyl-2-(2-methylpyrimidin-5-yl)-4-oxo-3,4-dihydroquinazolin-8-yl)ethyl)amino)-N-(methylsulfonyl) picolinamide] | ≥ 1 µM | ≥ 1 µM | 1 to 5 µM | 0.5 to 1 µM
C[C@@H](Nc1ccc(Cl)nc1C(=O)NS(C)(=O)=O)c1cc(F)cc2c(=O)n(C)c(-c3cccc(F)c3F)nc12 [Compound 87, (R)-6-chloro-3-((1-(2-(2,3-difluorophenyl)-6-fluoro-3-methyl-4-oxo-3,4-dihydroquinazolin-8-yl)ethyl)amino)-N-(methylsulfonyl) picolinamide] | ≥ 1 µM | ≥ 1 µM | ≥ 5 µM | 1 to 5 µM
Cc1cc([C@@H](C)Nc2ccc(Cl)nc2C(=O)NS(C)(=O)=O)c2nc(-c3ccc(F)cn3)n(C)c(=O)c2c1 [Compound 88, (R)-6-chloro-3-((1-(2-(5-fluoropyridin-2-yl)-3,6-dimethyl-4-oxo-3,4-dihydroquinazolin-8-yl)ethyl)amino)-N-(methylsulfonyl) picolinamide] | ≥ 1 µM | ≥ 1 µM | 1 to 5 µM | 0.25 to 0.5 µM
Cc1cc([C@@H](C)Nc2ccc(Cl)nc2C(=O)NS(C)(=O)=O)c2nc(-c3cnc(C)s3)n(C)c(=O)c2c1 [Compound 89, (R)-6-chloro-3-((1-(3,6-dimethyl-2-(2-methylthiazol-5-yl)-4-oxo-3,4-dihydroquinazolin-8-yl)ethyl)amino)-N-(methylsulfonyl) picolinamide] | 0.1 to 0.25 µM | 0.5 to 1 µM | 1 to 5 µM | < 0.25 µM
C[C@@H](Nc1ccc(Cl)nc1C(=O)NS(C)(=O)=O)c1cc(F)cc2c(=O)n(C)c(-c3cncc(F)c3)nc12 [Compound 90, (R)-6-chloro-3-((1-(6-fluoro-2-(5-fluoropyridin-3-yl)-3-methyl-4-oxo-3,4-dihydroquinazolin-8-yl)ethyl)amino)-N-(methylsulfonyl) picolinamide] | ≥ 1 µM | ≥ 1 µM | 1 to 5 µM | 1 to 5 µM
Cc1cc([C@@H](C)Nc2ccc(Cl)nc2C(=O)NS(C)(=O)=O)c2nc(-c3cnc(C)c(F)c3)n(C)c(=O)c2c1 [Compound 91, (R)-6-chloro-3-((1-(2-(5-fluoro-6-methylpyridin-3-yl)-3,6-dimethyl-4-oxo-3,4-dihydroquinazolin-8-yl)ethyl)amino)-N-(methylsulfonyl) picolinamide] | 0.25 to 0.5 µM | ≥ 1 µM | 1 to 5 µM | < 0.25 µM
Cc1cc([C@@H](C)Nc2ccc(Cl)nc2C(=O)NS(C)(=O)=O)c2nc(C3CCCCC3)n(C)c(=O)c2c1 [Compound 92, (R)-6-chloro-3-((1-(2-cyclohexyl-3,6-dimethyl-4-oxo-3,4-dihydroquinazolin-8-yl)ethyl)amino)-N-(methylsulfonyl) picolinamide] | < 0.1 µM | ≥ 1 µM | 1 to 5 µM | < 0.25 µM
Cc1cc([C@@H](C)Nc2ccc(Cl)[nH]c2=O)c2nc(N3Cc4ccc(F)cc4C3)n(C)c(=O)c2c1 [Compound 93, (R)-8-(1-((6-chloro-2-oxo-1,2-dihydropyridin-3-yl)amino)ethyl)-2-(5-fluoroisoindolin-2-yl)-3,6-dimethylquinazolin-4(3H)-one] | ≥ 1 µM | ≥ 1 µM | ≥ 5 µM | < 0.25 µM
Cc1cc([C@@H](C)Nc2ccc[nH]c2=O)c2nc(N3Cc4ccc(F)cc4C3)n(C)c(=O)c2c1 [Compound 94, (R)-2-(5-fluoroisoindolin-2-yl)-3,6-dimethyl-8-(1-((2-oxo-1,2-dihydropyridin-3-yl)amino)ethyl)quinazolin-4(3H)-one] | ≥ 1 µM | ≥ 1 µM | ≥ 5 µM | 1 to 5 µM
Cc1cc([C@@H](C)Nc2ccn[nH]c2=O)c2nc(N3Cc4ccc(F)cc4C3)n(C)c(=O)c2c1 [Compound 95, (R)-2-(5-fluoroisoindolin-2-yl)-3,6-dimethyl-8-(1-((3-oxo-2,3-dihydropyridazin-4-yl)amino)ethyl)quinazolin-4(3H)-one] | ≥ 1 µM | ≥ 1 µM | 1 to 5 µM | 1 to 5 µM
